# Results: US6673827B1, “Methods of treating fungal infections with inhibitors of NAD synthetase enzyme” (priority 1999, dated 2004)
# Read-outs that look alike come from different tables or passages of the source.
# How the values were obtained:
# [1] = system: Candida albicans (ATCC 10231); test: Minimum Inhibitory Concentration (MIC) against yeast, broth dilution; assay type: cell-based; details: for MIC: Candida albicans, read-out: MIC Candida albicans (ATCC 10231)
# [2] = system: Torulopsis glabrata ERH-BC9938274; test: In vitro study of inhibition of growth and lethality against yeast (MIC/MLC susceptibility test), isolate F; assay type: cell-based; details: Torulopsis glabrata, 1st pair of lines, isolate assigned by line order; for MIC / MFC: Nakaseomyces glabratus; for MFC: ERHBC9938274, read-out: Minimum Lethal Conc. (MLC)
# [3] = system: Candida albicans LH-000664533; test: In vitro study of inhibition of growth and lethality against yeast (MIC/MLC susceptibility test), isolate D; assay type: cell-based; details: Candida albicans, Candida albicans, 2nd pair of lines, isolate assigned by line order; for MFC: LH000664533, read-out: Minimum Lethal Conc. (MLC)
# [4] = system: Torulopsis glabrata JHC-BC9951635; test: In vitro study of inhibition of growth and lethality against yeast (MIC/MLC susceptibility test), isolate E; assay type: cell-based; details: Torulopsis glabrata, 2nd pair of lines, isolate assigned by line order; for MIC / MFC: Nakaseomyces glabratus; for MFC: JHCBC9951635, read-out: Minimum Lethal Conc. (MLC)
# [5] = system: Candida tropicalis (ATCC 28707-amphotericin B-resistant); test: Minimum Inhibitory Concentration (MIC) against yeast, broth dilution; assay type: cell-based; details: Candida tropicalis, ATCC28707, 37° C., 20 hours, mean of duplicate
# [6] = system: Candida tropicalis ATCC 750; test: In vitro study of inhibition of growth and lethality against yeast (MIC/MLC susceptibility test), isolate A; assay type: cell-based; details: Candida tropicalis, 2nd pair of lines, isolate assigned by line order; for MFC: ATCC750, read-out: Minimum Lethal Conc. (MLC)
# [7] = system: Cryptococcus neoformans DLB-1027594CNC; test: In vitro study of inhibition of growth and lethality against yeast (MIC/MLC susceptibility test), isolate G; assay type: cell-based; details: Cryptococcus neoformans, Cryptococcus neoformans, 1st pair of lines, isolate assigned by line order; for MIC / MFC: DLB1027594CNC; for MFC: read-out: Minimum Lethal Conc. (MLC)
# [8] = molecular target: T1, NAD synthetase (recombinant protein from B. subtilis; purified) (Bacillus subtilis, UniProt P08164); test: NAD synthetase enzyme inhibition assay (coupled enzymatic assay, HTS); assay type: biochemical
# T1 construct: made in house
# T1 sequence (P08164 whole entry): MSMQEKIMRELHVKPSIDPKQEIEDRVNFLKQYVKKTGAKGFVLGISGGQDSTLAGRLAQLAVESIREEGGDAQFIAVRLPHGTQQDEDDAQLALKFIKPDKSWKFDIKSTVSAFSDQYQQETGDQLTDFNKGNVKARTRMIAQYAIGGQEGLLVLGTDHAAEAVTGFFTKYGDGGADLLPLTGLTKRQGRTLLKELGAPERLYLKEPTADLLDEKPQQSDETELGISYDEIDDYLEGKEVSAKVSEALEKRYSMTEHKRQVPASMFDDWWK
# Procedure: NAD Synthetase Enzyme Inhibition Assay-Determination of Test Compound Concentrations Providing 50% Inhibition ([…]) of the Maximum Enzyme Rate
# The potential inhibitory activity of the synthetic compounds was determined by the use of a coupled enzymatic assay. The coupled assay involves two steps as summarized below. [drawing 98]
# The measurement of inhibitory activities of the test compounds was facilitated by the use of a high through-put screening system (HTS system). The HTS system utilizes an integrated Sagian 2M ORCA robotic system coordinating the functions of a Beckman Biomek 2000 liquid handler and a Molecular Devices SpectraMax Plus spectrophotometer. The 2M ORCA robotic station is responsible for the movement of all hardware and the integration of multiple stations on the worksurface. The Biomek 2000 is programmed to perform all phases of liquid dispensing and mixing. The SpectraMax Plus spectrophotometer is equipped to monitor absorbance in a 96-well plate format.
# The Biomek 2000 mixes these components utilizing a predefined mixing program. […] The reaction is monitored by measuring the increase in absorbance at 340 nm (NADH). The linear portion of the reaction is monitored for 180 sec. The initial velocity is determined using Softmax Pro, the software supplied with the Molecular Devices SpectrMax Plus spectrophotometer.
# The test compounds were supplied as a stock solution with a concentration of 50 mM dissolved in 100% dimethyl sulfoxide (DMSO). An initial screen was conducted on all compounds using a 2 or 3 concentration screen. The 2 panel screen used concentrations of 0.2 mM and 0.1 mM for the compounds. The 3 panel screen used concentrations of 0.2 mM, 0.1 mM, and 0.05 mM. […] The IC50 values for each compound were determined graphically from a plot of % inhibition versus […].
# [9] = system: Cryptococcus neoformans SLP-BC0012854; test: In vitro study of inhibition of growth and lethality against yeast (MIC/MLC susceptibility test), isolate H; assay type: cell-based; details: Cryptococcus neoformans, Cryptococcus neoformans, 2nd pair of lines, isolate assigned by line order; for MFC: SLPBC0012854, read-out: Minimum Lethal Conc. (MLC)
# [10] = system: Candida albicans KJP-000531594; test: In vitro study of inhibition of growth and lethality against yeast (MIC/MLC susceptibility test), isolate C; assay type: cell-based; details: Candida albicans, Candida albicans, 1st pair of lines
# [11] = system: Candida tropicalis (ATCC 750); test: Minimum Inhibitory Concentration (MIC) against yeast, broth dilution; assay type: cell-based; details: Candida tropicalis, ATCC750; 37° C., 20 hours, mean of duplicate
# [12] = system: Candida tropicalis ATCC 28707; test: In vitro study of inhibition of growth and lethality against yeast (MIC/MLC susceptibility test), isolate B; assay type: cell-based; details: Candida tropicalis, 1st pair of lines, isolate assigned by line order; for MFC: ATCC28707, read-out: Minimum Lethal Conc. (MLC)
# [13] = 37° C., 20 hours, mean of duplicate
# [14] = ERHBC9938274, 24 h, read at 24 hr, read-out: Minimum Inhibitory Conc. (MIC), 24 hr.
# [15] = ERHBC9938274, 48 h, read at 48 hr, read-out: Minimum Inhibitory Conc. (MIC), 48 hr.
# [16] = LH000664533, 24 h, read at 24 hr, read-out: Minimum Inhibitory Conc. (MIC), 24 hr.
# [17] = LH000664533, 48 h, read at 48 hr, read-out: Minimum Inhibitory Conc. (MIC), 48 hr.
# [18] = JHCBC9951635, 24 h, read at 24 hr, read-out: Minimum Inhibitory Conc. (MIC), 24 hr.
# [19] = JHCBC9951635, 48 h, read at 48 hr, read-out: Minimum Inhibitory Conc. (MIC), 48 hr.
# [20] = ATCC750, 24 h, read at 24 hr, read-out: Minimum Inhibitory Conc. (MIC), 24 hr.
# [21] = ATCC750, 48 h, read at 48 hr, read-out: Minimum Inhibitory Conc. (MIC), 48 hr.
# [22] = 72 h, read at 72 hr, read-out: Minimum Inhibitory Conc. (MIC), 72 hr.
# [23] = IC50 (μg/mL) for Inhibit. of NAD Synthetase, table of structures used in the yeast assay (Example 4)
# [24] = SLPBC0012854, 48 h, read at 48 hr, read-out: Minimum Inhibitory Conc. (MIC), 48 hr.
# [25] = SLPBC0012854, 72 h, read at 72 hr, read-out: Minimum Inhibitory Conc. (MIC), 72 hr.
# [26] = KJP000531594, 24 h, read at 24 hr, isolate not given, assigned by line order and MLC of Table 4B, read-out: Minimum Inhibitory Conc. (MIC), 24 hr.
# [27] = KJP000531594, 48 h, read at 48 hr, isolate assigned by line order, read-out: Minimum Inhibitory Conc. (MIC), 48 hr.
# [28] = ATCC28707, 24 h, read at 24 hr, read-out: Minimum Inhibitory Conc. (MIC), 24 hr.
# [29] = ATCC28707, 48 h, read at 48 hr, read-out: Minimum Inhibitory Conc. (MIC), 48 hr.
structure (smiles),measurement,setting,value
COC(=O)c1cc2ccccc2n1CCCCCCCCOC(=O)Cc1ccc([N+](C)(C)C)cc1 [Compound 985],MIC Candida albicans (ATCC 10231),[1]; [13],1.6 µg/mL
COC(=O)c1cc2ccccc2n1CCCCCCCCCOC(=O)Cc1ccc([N+](C)(C)C)cc1 [Compound 986],MIC Candida albicans (ATCC 10231),[1]; [13],2.3 µg/mL
C[N+](C)(C)c1ccc(CC(=O)OCCCCCCCCOc2ccc(OCc3ccccc3)cc2)cc1.[I-] [Compound 1094],MIC,[2]; [14],0.5 µg/mL
same,MIC,[2]; [15],1 µg/mL
same,MFC,[2],4 µg/mL
same,"Minimum Inhibitory Conc. (MIC), 24 hr.",[2]; read at 24 hr,1 µg/mL
same,MIC,[3]; [16],2 µg/mL
same,MIC,[3]; [17],2 µg/mL
same,MFC,[3],8 µg/mL
same,MIC,[4]; [18],0.5 µg/mL
same,MIC,[4]; [19],1 µg/mL
same,MFC,[4],4 µg/mL
same,"Minimum Inhibitory Conc. (MIC), 24 hr.",[4]; read at 24 hr,1 µg/mL
same,MIC,[5],0.78 µg/mL
same,MFC,[6],4 µg/mL
same,MIC,[6]; [20],1 µg/mL
same,MIC,[6]; [21],1 µg/mL
same,MIC,"[7]; 48 h, read at 48 hr, read-out: Minimum Inhibitory Conc. (MIC), 48 hr.",1 µg/mL
same,MIC,[7]; [22],1 µg/mL
same,MFC,[7],2 µg/mL
same,IC50,[8],20 µM
same,IC50,[8]; [23],31.7 µM
same,MIC,"[1]; ATCC10231, 37° C., 20 hours, mean of duplicate",6.2 µg/mL
same,MIC,[9]; [24],1 µg/mL
same,MIC,[9]; [25],1 µg/mL
same,MFC,[9],2 µg/mL
same,MIC,[10]; [26],1 µg/mL
same,MIC,[10]; [27],2 µg/mL
same,MIC,[11],0.78 µg/mL
same,MFC,[12],2 µg/mL
same,MIC,[12]; [28],0.5 µg/mL
same,MIC,[12]; [29],0.5 µg/mL
C[n+]1cccc(C(=O)OCCCCCCCCCn2ccc3ccccc32)c1 [Compound 970],IC50,"[8]; read-out: IC50: concentration of test compound producing 50% inhibition of the NAD synthetase enzyme rate, Table 1, recombinant B. subtilis NAD synthetase, absorbance at 340 nm",20 µM
same,MIC Candida albicans (ATCC 10231),[1]; [13],0.8 µg/mL
COC(=O)c1cc2ccccc2n1CCCCCCCOC(=O)Cc1ccc([N+](C)(C)C)cc1 [Compound 984],MIC,"[1]; ATCC10231, 20 h",0.78 µg/mL
COC(=O)c1cc2cc(OCc3ccccc3)ccc2n1CCCCCCCOC(=O)c1ccc[n+](C)c1 [Compound 976],MIC Candida albicans (ATCC 10231),[1]; [13],3.1 µg/mL
COC(=O)c1cc2cc(OCc3ccccc3)ccc2n1CCCCCCCOC(=O)c1ccc(CN(C)C)cc1 [Compound 1096],MIC,[2]; [14],> 32 µg/mL
same,MIC,[2]; [15],> 32 µg/mL
same,MFC,[2],> 32 µg/mL
same,MIC,[3]; [16],> 32 µg/mL
same,MIC,[3]; [17],> 32 µg/mL
same,MFC,[3],> 32 µg/mL
same,MIC,[4]; [18],> 32 µg/mL
same,MIC,[4]; [19],> 32 µg/mL
same,MFC,[4],> 32 µg/mL
same,MFC,[6],> 32 µg/mL
same,MIC,[6]; [20],> 32 µg/mL
same,MIC,[6]; [21],> 32 µg/mL
same,"Minimum Inhibitory Conc. (MIC), 72 hr.",[7]; read at 72 hr,16 µg/mL
same,MIC,[7]; [22],> 32 µg/mL
same,MFC,[7],> 32 µg/mL
same,IC50,[8]; [23],180 µM
same,"Minimum Inhibitory Conc. (MIC), 48 hr.",[9]; read at 48 hr,32 µg/mL
same,"Minimum Inhibitory Conc. (MIC), 72 hr.",[9]; read at 72 hr,32 µg/mL
same,MIC,[9]; [24],> 32 µg/mL
same,MIC,[9]; [25],> 32 µg/mL
same,MFC,[9],> 32 µg/mL
same,MIC,[10]; [26],> 32 µg/mL
same,MIC,[10]; [27],> 32 µg/mL
same,MFC,"[10]; KJP000531594, isolate assigned by line order, read-out: Minimum Lethal Conc. (MLC)",> 32 µg/mL
same,MFC,[12],16 µg/mL
same,"Minimum Inhibitory Conc. (MIC), 24 hr.",[12]; read at 24 hr,2 µg/mL
same,"Minimum Inhibitory Conc. (MIC), 48 hr.",[12]; read at 48 hr,16 µg/mL
same,MIC,[12]; [28],4 µg/mL
same,MIC,[12]; [29],8 µg/mL
C[N+](C)(C)c1ccc(CC(=O)OCCCCCCCCn2ccc3cc(OCc4ccccc4)ccc32)cc1 [Compound 749],MIC Candida albicans (ATCC 10231),[1]; [13],1.6 µg/mL
COC(=O)c1cc2cc(OCc3ccccc3)ccc2n1CCCCCCCCOC(=O)c1ccc[n+](C)c1 [Compound 977],MIC Candida albicans (ATCC 10231),[1]; [13],1.6 µg/mL
